Experimental data: publication PMC8552062, “Contributions of UDP-Glucuronosyltransferases to Human Hepatic and Intestinal Metabolism of Ticagrelor and Inhibition of UGTs and Cytochrome P450 Enzymes by Ticagrelor and its Glucuronidated Metabolite” (Frontiers in Pharmacology, 2021)

Assays:
Type in all cases: in vitro ADME
Set-up in all cases: tissue XenoTech LLC; host or cells: pooled human liver microsomes
[1] = target: T1, UGT1A1 (Homo sapiens, UniProt P22309); experiment: UGT1A1 inhibition in HLM (SN-38 glucuronidation); conditions: for IC50: UGT1A1, SN-38 glucuronide formation in HLM
T1 sequence (P22309 26-533): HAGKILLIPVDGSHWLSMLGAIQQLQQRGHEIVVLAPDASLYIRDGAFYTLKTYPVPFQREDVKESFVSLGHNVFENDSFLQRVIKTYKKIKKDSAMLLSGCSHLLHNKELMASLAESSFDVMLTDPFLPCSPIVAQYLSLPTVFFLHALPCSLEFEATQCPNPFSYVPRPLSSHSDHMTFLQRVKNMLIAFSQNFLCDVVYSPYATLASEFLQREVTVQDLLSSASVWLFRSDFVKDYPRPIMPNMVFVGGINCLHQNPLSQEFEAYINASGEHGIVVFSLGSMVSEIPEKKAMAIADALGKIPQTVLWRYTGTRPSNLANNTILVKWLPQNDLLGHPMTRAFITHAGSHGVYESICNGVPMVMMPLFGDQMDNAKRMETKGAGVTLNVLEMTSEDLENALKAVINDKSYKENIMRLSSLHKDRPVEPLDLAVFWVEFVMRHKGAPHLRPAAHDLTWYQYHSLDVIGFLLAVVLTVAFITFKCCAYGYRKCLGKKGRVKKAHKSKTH
Description: (§1) To assess drug-drug interactions (DDIs) potential caused by ticagrelor and ticagrelor-O-Glu through the inhibition of the major human UGTs enzymes, selective UGT probe substrates were co-incubated with ticagrelor or ticagrelor-O-Glu in HLM. The formation of metabolites, SN-38 glucuronide, chenodeoxycholic acid 24-acyl-β-D-glucuronide, trifluoperazine N-glucuronide, N-Acetyl serotonin glucuronide, mycophenolic acid glucuronide and 3′-azide-3′-deoxythymidine β-D-glucuronide, which could reflect the enzyme activities of UGT1A1, UGT1A3, UGT1A4, UGT1A6, UGT1A9 and UGT2B7, respectively, were quantified using LC-MS/MS. Three different concentrations of ticagrelor or ticagrelor-O-Glu (1, 10 and 100 μM) were added to the incubation system in the presence of selective UGT probe substrates (SN-38, chenodeoxycholic acid, trifluoperazine, N-Acetyl serotonin, mycophenolic acid and 3′-azide-3′-deoxythymidine), respectively. The assays were performed as described above. The control was treated with a vehicle solvent only. A triple determination was performed.
(§2) The percent inhibition relative to the control was calculated to indicate the UGTs or CYPs inhibition. For inhibition exceeding 50% of the control activity, nonlinear regression analysis was used to estimate the IC50 values using the GraphPad Prism 6 (GraphPad Software Inc., CA, United States).

[2] = target: T2, UGT2B7 (Homo sapiens, UniProt P16662); experiment: UGT2B7 inhibition in HLM (3′-azide-3′-deoxythymidine glucuronidation); conditions: for IC50: UGT2B7, 3′-azide-3′-deoxythymidine β-D-glucuronide formation in HLM; for inhibition at 100 µM: human, human liver microsomes (HLM), probe 3′-azide-3′-deoxythymidine, HLM, 100 μM test compound
T2 sequence (P16662 24-529): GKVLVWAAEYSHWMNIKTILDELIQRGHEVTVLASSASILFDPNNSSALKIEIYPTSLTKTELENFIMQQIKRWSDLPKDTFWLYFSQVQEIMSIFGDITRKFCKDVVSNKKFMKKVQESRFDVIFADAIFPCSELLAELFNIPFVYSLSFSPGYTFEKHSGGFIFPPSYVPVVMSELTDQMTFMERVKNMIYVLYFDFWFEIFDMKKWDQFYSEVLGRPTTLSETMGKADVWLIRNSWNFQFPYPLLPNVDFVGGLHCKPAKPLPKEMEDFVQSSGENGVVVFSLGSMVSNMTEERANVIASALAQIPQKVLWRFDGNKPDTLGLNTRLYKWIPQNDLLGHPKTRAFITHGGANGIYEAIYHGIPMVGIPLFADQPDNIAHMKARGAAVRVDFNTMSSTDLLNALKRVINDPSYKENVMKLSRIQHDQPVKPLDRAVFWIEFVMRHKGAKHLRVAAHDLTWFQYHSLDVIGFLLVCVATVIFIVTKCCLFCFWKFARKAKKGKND
Description: as §1, §2

[3] = target: T3, UGT1A9 (Homo sapiens, UniProt O60656); experiment: UGT1A9 inhibition in HLM (mycophenolic acid glucuronidation); conditions: for IC50: UGT1A9, mycophenolic acid glucuronide formation in HLM; for inhibition at 100 µM: human, human liver microsomes (HLM), probe mycophenolic acid, HLM, 100 μM test compound
T3 sequence (O60656 26-530): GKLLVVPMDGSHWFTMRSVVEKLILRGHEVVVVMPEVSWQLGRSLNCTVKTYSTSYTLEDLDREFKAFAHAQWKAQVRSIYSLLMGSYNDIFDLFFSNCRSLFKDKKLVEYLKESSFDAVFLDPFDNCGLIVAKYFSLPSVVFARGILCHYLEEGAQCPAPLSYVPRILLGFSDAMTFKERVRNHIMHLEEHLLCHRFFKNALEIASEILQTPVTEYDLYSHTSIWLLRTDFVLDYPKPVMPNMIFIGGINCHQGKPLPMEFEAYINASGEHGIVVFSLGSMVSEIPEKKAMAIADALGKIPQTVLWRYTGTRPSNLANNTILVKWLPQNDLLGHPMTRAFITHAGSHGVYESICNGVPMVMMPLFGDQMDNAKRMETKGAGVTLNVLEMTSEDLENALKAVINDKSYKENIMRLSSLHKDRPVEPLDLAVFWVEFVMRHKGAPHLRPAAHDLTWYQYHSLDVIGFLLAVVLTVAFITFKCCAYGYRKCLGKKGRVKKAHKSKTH
Description: as §1, §2

[4] = target: T4, UGT1A6 (Homo sapiens, UniProt P19224); experiment: UGT1A6 inhibition in HLM (N-Acetyl serotonin glucuronidation); conditions: for IC50: UGT1A6, N-Acetyl serotonin glucuronide formation in HLM; for inhibition at 100 µM: human, human liver microsomes (HLM), probe N-Acetyl serotonin, HLM, 100 μM test compound
T4 sequence (P19224 27-532): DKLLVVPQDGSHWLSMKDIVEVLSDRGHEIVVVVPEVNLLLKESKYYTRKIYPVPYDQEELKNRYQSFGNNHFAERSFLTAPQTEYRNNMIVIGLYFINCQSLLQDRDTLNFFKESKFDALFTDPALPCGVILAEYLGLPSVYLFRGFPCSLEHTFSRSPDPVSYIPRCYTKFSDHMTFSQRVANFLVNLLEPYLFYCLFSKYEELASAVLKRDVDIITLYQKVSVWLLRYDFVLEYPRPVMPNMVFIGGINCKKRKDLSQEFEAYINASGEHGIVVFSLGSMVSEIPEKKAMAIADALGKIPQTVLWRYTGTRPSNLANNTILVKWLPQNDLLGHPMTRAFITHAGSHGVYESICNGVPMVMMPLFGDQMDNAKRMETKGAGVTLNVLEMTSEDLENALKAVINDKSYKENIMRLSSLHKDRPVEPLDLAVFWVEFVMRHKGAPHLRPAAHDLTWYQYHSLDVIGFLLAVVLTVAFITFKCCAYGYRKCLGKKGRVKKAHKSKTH
Description: as §1, §2

Row | SMILES | inhibitory effect on UGT1A1 ([1]; HLM, concentration up to 100 μM) | IC50 [1] | IC50 [2] | inhibition at 100 µM [2] | IC50 [3] | inhibition at 100 µM [3] | IC50 [4] | inhibition at 100 µM [4] | inhibition at 100 µM ([1]; human, human liver microsomes (HLM), probe SN-38, HLM, 100 μM test compound)
1 | CCCSc1nc(N[C@@H]2C[C@H]2c2ccc(F)c(F)c2)c2nnn([C@@H]3C[C@H](OCCO[C@@H]4O[C@H](C(=O)O)[C@@H](O)[C@H](O)[C@H]4O)[C@@H](O)[C@H]3O)c2n1 [Ticagrelor-O-Glu, ticagrelor-O-glucuronide] | no significant inhibitory effects | > 100 µM | > 100 µM | 30.7% | ~100 µM | 61.4% | > 100 µM | 28.5% | 
2 | CCCSc1nc(N[C@@H]2C[C@H]2c2ccc(F)c(F)c2)c2nnn([C@@H]3C[C@H](OCCO)[C@@H](O)[C@H]3O)c2n1 [Ticagrelor] |  | ~100 µM | > 100 µM | 39% | > 100 µM | 13.3% | > 100 µM | 12.7% | 56.8%
